Experimental findings from PMC12040169 (PLOS Biology, 2025) are described below.

What is called viability is a read-out of living cells in per cent, often relative to untreated cells.

The structures appear in SMILES notation.

This series can be described thus: in vitro. The following applies: human, hela cells, % viability.
With `CC(C)Nc1nc2cc(Cl)c(Cl)cc2nc1OCCCN(C)C` [CBK115282], the viability at 28.5 h, 10 µM is 93.1%.
The same measure for `c1cnc(N2CCCC2)c(OC2CCCNC2)n1` (centres unmarked) [CBK115283]: 90.2%; for `CCOC(=O)Cn1c(C)nc2ccccc21` [CBK115311]: 103%; for `CC1(C(F)(F)F)OC(NC2C3CC4CC(C3)CC2C4)=NC1=O` (centres unmarked) [CBK115312]: 114%.
Turning to `O=c1c([N+](=O)[O-])c(O)c2ccccc2n1-c1ccccc1` [CBK115316], the viability at 28.5 h, 10 µM was determined as 97.5%.
The same measure for `COc1ccccc1-n1c(C)c(C(C)=O)c2cc(O)ccc21` [CBK115320]: 86.3%; for `COC(=O)c1nn(-c2ccccc2)c2cc([N+](=O)[O-])ccc12` [CBK115321]: 99.3%; for `Cc1cc(O)c(C(C)C)cc1N1C(=O)c2ccc([N+](=O)[O-])cc2C1=O` [CBK115323]: 97.7%.
Under `Cn1c(CNc2ccccc2[N+](=O)[O-])c(C#N)c2ccccc21` [CBK115324] stands 98.1%; under `Cc1ccc(-n2c(C)c([N+](=O)[O-])c3ccc(O)c(CN(C)C)c32)cc1` [CBK115328], 88.8%; under `Cc1cc(O)nc2sc(C(=O)c3ccccc3)c(N)c12` [CBK115334], 87.9%.
Under `Cc1cc(C)c2c(N)c(C(=O)C(C)(C)C)sc2n1` [CBK115341] stands 81.3%; under `Cc1ccc2c(N)c(C(=O)Nc3ccc(C#N)cc3)sc2n1` [CBK115348], 91.3%.
In the case of `COc1ccc2c(c1)/C(=C/c1cnc[nH]1)C(=O)N2` [CBK115354], the viability at 28.5 h, 10 µM turned out to be 72.5%.
Under `CC(C)NC(=O)/C(=C/c1c[nH]c2ncccc12)c1ccccc1` [CBK115357] stands 95.8%.
The same measure for `CCN(CC)C(=O)c1sc2nc(-c3cccs3)nc(C)c2c1N` [CBK115366]: 100%.
The same measure for `CC(=O)c1sc2nc(-c3ccccc3)nc(C)c2c1N` [CBK115368]: 90.5%.
On to `Cc1ccc2c(N)c(C(=O)c3cccs3)sc2n1` [CBK115369], for which the viability at 28.5 h, 10 µM was determined as 92.5%.
Consider `COc1ccc(Cn2c(C)nc3c([N+](=O)[O-])c(C)c(C)cc32)cc1` [CBK115370], for which the viability at 28.5 h, 10 µM is 102%.
The same measure for `CCOC(=O)c1sc2nccc(N(C)C)c2c1-n1cccc1` [CBK115381]: 93.4%; for `COC(=O)c1ccccc1N1C(=O)c2cccc([N+](=O)[O-])c2C1=O` [CBK115382]: 95.7%; for `O=C1Nc2ccccc2/C1=C/c1c[nH]cn1` [CBK115386]: 92.8%.
The same measure for `COC[C@H]1CCCN1C(=O)Cn1[nH]c(C)c(Cc2c(Cl)cccc2Cl)c1=O` [CBK115407]: 103%.
Under `COc1ccc2c(c1)nc1n2CCC1O` (centres unmarked) [CBK115449] stands 96.9%; under `COc1cccc(CN2CCCN(c3nccc(OCC4COc5ccccc5O4)n3)CC2)c1OC` (centres unmarked) [CBK115476T], 108%.
As for `CC1(c2[nH]nc(N)c2Cc2c(Cl)cccc2Cl)CC1` [CBK115483T], the viability at 28.5 h, 10 µM was determined as 92.3%.
Take `Cc1[nH]c(=O)[nH]c(=S)c1C(=O)NCc1ccc(Cl)cc1` [CBK115489]: the viability at 28.5 h, 10 µM is 106%.
The same measure for `Cc1[nH]c(=O)[nH]c(=S)c1C(=O)NCc1cccc(Cl)c1C` [CBK115493]: 94.6%; for `Cc1[nH]c(=O)[nH]c(=S)c1C(=O)Nc1ccc(Cl)cc1C#N` [CBK115502]: 91%.
On to `Cc1[nH]c(=O)[nH]c(=S)c1C(=O)Nc1ccc(C(F)(F)F)cc1` [CBK115510], for which the viability at 28.5 h, 10 µM stood at 96.2%.
As to `Nc1ncc(-c2ccccc2O)nc1-c1ccc(O)cc1` [CBK115548], the viability at 28.5 h, 10 µM turned out to be 78.5%.
Under `Cc1ccc(C(=O)c2coc3ccc(O)cc23)cc1` [CBK115557] stands 89.1%; under `O=C(O)CSc1ccc(Cl)cc1` [CBK115571], 88.4%; under `O=[N+]([O-])c1cccnc1Sc1ccccc1C1=NCCCN1` [CBK115579C], 96.2%.
Under `NCCCOc1cncc(N2CCCC2)n1` [CBK115603] stands 96.8%; under `Nc1ncc(-c2ccsc2)nc1-c1ccc(O)cc1` [CBK115631], 100%.
Under `O=C1N=C(NC2C3CC4CC(C3)CC2C4)OC12CCN(CCC(F)(F)F)CC2` (centres unmarked) [CBK115640] stands 91.4%.
On to `CC(C)Nc1nccnc1OCc1ccc(F)cc1` [CBK115644], for which the viability at 28.5 h, 10 µM came to 113%.
The same measure for `CC(C)Nc1nccnc1OCc1ccsc1` [CBK115646]: 103%.
Under `CC(C)Nc1cc(OCc2ccc(F)cc2)ncn1` [CBK115654] stands 103%; under `CC(C)Nc1cc(OCc2ccc(-c3ccccc3)cc2)ncn1` [CBK115658], 103%; under `CC(C)Nc1nc2ccccc2nc1OCc1ccsc1` [CBK115660], 104%.
Turning to `Clc1ccc(OCCOc2cncc(N3CCCC3)n2)cc1` [CBK115668], the viability at 28.5 h, 10 µM is 87.4%.
Under `c1ccc(NCCOc2cncc(N3CCCC3)n2)cc1` [CBK115670] stands 101%; under `Cc1cc(O)ccc1-c1cncc(-c2ccc(O)cc2C)n1` [CBK115689], 90.5%; under `O=C(NCCN1CCOCC1)c1ccc(Nc2cncc(-c3ccc(O)cc3)n2)cc1` [CBK115692], 77.1%.
Under `CCOC(=O)N1CCC(NC(=O)c2ccc(Nc3cncc(-c4ccc(O)cc4)n3)cc2)CC1` [CBK115694] stands 107%.
Under `CCCc1n[nH]c(C2CC2)c1C(=O)OCC` [CBK115714] stands 115%; under `CCCc1n[nH]c(C2CCCC2)c1C(=O)OCC` [CBK115727], 85.1%.
For `CC(C)Nc1nc2ccccc2nc1OCCC#N` [CBK115735], the viability at 28.5 h, 10 µM was 103%.
Regarding `Cc1ncsc1CCOc1nc2ccccc2nc1NC(C)C` [CBK115736], the viability at 28.5 h, 10 µM amounted to 102%.
The same measure for `COCCCOc1nc2ccccc2nc1NC(C)C` [CBK115737]: 99.3%; for `CC(C)Nc1nc2cc(Cl)c(Cl)cc2nc1OCc1cccnc1` [CBK115743]: 97.4%.
The same measure for `Cc1ncsc1CCOc1nccnc1N1CCCC1` [CBK115752]: 86.5%.
Under `Oc1cccc(OCCOc2nccnc2N2CCCC2)c1` [CBK115756] stands 85.5%.
With `COCCCOc1cncc(N2CCCC2)n1` [CBK115759], the viability at 28.5 h, 10 µM is 92.4%.
Under `c1cncc(COc2nc3ccccc3nc2N2CCCC2)c1` [CBK115762] stands 93.4%; under `N#CCCOc1nc2ccccc2nc1N1CCCC1` [CBK115763], 96.2%; under `Cc1cc(COc2nc3ccccc3nc2N2CCCC2)no1` [CBK115768], 109%.
Under `c1ccc2nc(N3CCCC3)c(OC3CCOC3)nc2c1` (centres unmarked) [CBK115769] stands 99.4%; under `CSCCOc1nc2ccccc2nc1N1CCCC1` [CBK115770], 91.3%; under `COCCCOc1nc2cc(Cl)c(Cl)cc2nc1N1CCCC1` [CBK115773], 95.9%.
The same measure for `Oc1cccc(OCCOc2nc3cc(Cl)c(Cl)cc3nc2N2CCCC2)c1` [CBK115778]: 100%; for `Cc1ncsc1CCOc1ncccc1C(F)(F)F` [CBK115781]: 92.2%.
Turning to `Cc1cc(COc2ncccc2C(F)(F)F)no1` [CBK115783], the viability at 28.5 h, 10 µM was determined as 101%.
Consider `FC(F)(F)c1ccnc(OCc2cccnc2)c1` [CBK115784], for which the viability at 28.5 h, 10 µM was 99.6%.
Turning to `Cc1cc(COc2cc(C(F)(F)F)ccn2)no1` [CBK115787], the viability at 28.5 h, 10 µM came out at 134%.
Under `Oc1cccc(OCCOc2cc(C(F)(F)F)ccn2)c1` [CBK115788] stands 84.8%; under `FC(F)(F)c1ccc(OCCCc2ccncc2)nc1` [CBK115791], 101%; under `Cc1cc(COc2ccc(C(F)(F)F)cn2)no1` [CBK115792], 91.7%.
Take `Cc1ncsc1CCOc1cccc(C(F)(F)F)n1` [CBK115794]: the viability at 28.5 h, 10 µM was 117%.
Under `Cc1ncsc1CCOc1nccc(C(F)(F)F)n1` [CBK115798] stands 80.3%; under `FC(F)(F)c1ccnc(OCCCc2ccncc2)n1` [CBK115799], 97.5%.
Under `COCCCOc1nc2ccccc2nc1C(F)(F)F` [CBK115803] stands 101%; under `FC(F)(F)c1cccnc1OCCNc1ccccc1` [CBK115822], 98.7%.
Under `FC(F)(F)c1ccc(OCc2ccc(-c3ccccc3)cc2)nc1` [CBK115830] stands 94.6%.
As for `FC(F)(F)c1ccc(OCc2ccc(Cl)c(Cl)c2)nc1` [CBK115831], the viability at 28.5 h, 10 µM was 90.2%.
The same measure for `O=C1NC2(CCN(C(=O)Cc3ccc(F)cc3)CC2)Oc2ccc(-c3ccccc3)cc21` [CBK115832]: 93.5%.
The same measure for `FC(F)(F)c1cccc(OCCOc2ccccc2)n1` [CBK115835]: 87.7%.
With `FC(F)(F)c1ccnc(OCCOc2ccc(Cl)cc2)n1` [CBK115838], the viability at 28.5 h, 10 µM stood at 90.8%.
Under `FC(F)(F)c1ccnc(OCCNc2ccccc2)n1` [CBK115839] stands 90.8%; under `FC(F)(F)c1nc2ccccc2nc1OCCc1c[nH]c2ccccc12` [CBK115843], 93.2%; under `O=C1NC2(CCN(C(=O)Cc3c(F)ccc(F)c3F)CC2)Oc2ccc(-c3ccoc3)cc21` [CBK115848], 83.2%.
Under `COc1cccc(NC(=O)N2CCC3(CC2)NC(=O)c2cc(-c4ccoc4)ccc2O3)c1` [CBK115855] stands 102%; under `COc1ccc2[nH]cc(CCNC(=O)c3ccc(Cl)c(Cl)c3)c2c1` [CBK115870], 107%; under `Cc1cc(NC(=O)C2COc3ccccc3O2)c2ccccc2n1` (centres unmarked) [CBK115871], 91.6%.
